Laboratory results from patent EP2698384A1, “Detection of synthetic cannabinoids” (priority 2012, dated 2014).
Read-outs that look alike come from different tables or passages of the source.

How the values were obtained:
Type in all cases: binding, sheep
[1] = system: Antibody to Immunogen III
Summary of the method: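 Plates were coated with IgG from antiserum to Immunogen III, and JWH-250 standards (0–40 ng/ml) competed with hapten-HRP conjugate for 1 h at 25°C. Detection used TMB with A450. IC50 is the concentration giving half the 0 ng/ml OD on a 4-parameter fit, and cross-reactivity was taken from calibration curves using a single level of each cross-reactant.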

Antibody to Immunogen V = settings: Cross-reactants at 100 ng/ml; 1000ng/ml; single level of cross reactants
Summary of the method: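 Plates coated with anti-Immunogen V IgG; RCS-8 standards (0–80 ng/ml in TBST) compete with hapten-HRP conjugate 1 h at 25°C, TMB readout at 450 nm. IC50 from 4-parameter fit as concentration at half the zero-standard OD; cross-reactivity from single-level cross-reactant versus calibration curve.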

Antibody to Immunogen VI = settings: Cross-reactants at 100 ng/ml; 1000ng/ml; single level of cross reactants
Summary of the method: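 Plates coated with IgG from anti-Immunogen VI antiserum; RCS-4 standards (0–20 ng/ml) compete with hapten-HRP conjugate for 1 h at 25°C. TMB read at 450 nm, 4-parameter fit; IC50 at half the zero-standard OD. Cross-reactivity from single-level cross-reactant solutions against calibration curves.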

[2] = Cross-reactants at 100 ng/ml, 1000ng/ml, single level of cross reactants

Compound	%B/B0 [1, 2] [%]	%B/B0 (Antibody to Immunogen V) [%]	%B/B0 (Antibody to Immunogen VI) [%]	further results
CCCCCn1cc(C(=O)c2cccc3ccccc23)c2ccc(O)cc21	92.91	75.65	91.26	–
CCCCCn1cc(C(=O)c2c(OC)ccc3ccccc23)c2ccccc21 [JWH-081 2-methoxynaphthyl isomer or (JWH-267)]	85.59	70.37	86.87	–
COc1ccc(C(=O)c2cn(CCCCCO)c3ccccc23)c2ccccc12 [JWH-081 N-(5-hydroxypentyl) metabolite]	76.44	72.78	69.47	–
CCCn1c(C)c(C(=O)c2cccc3ccccc23)c2ccccc21 [JWH-015]	93.97	73.42	77.06	–
CCCCn1cc(C(=O)c2c(C)ccc3ccccc23)c2ccccc21 [JWH 073 2-methylnaphthyl analog]	86.14	77.45	86.98	–
CCCCCCC(C)(C)c1cc(O)c2c(c1)OC(C)(C)[C@@H]1CC=C(CO)C[C@@H]21 [HU-210]	91.13	67.43	90.89	–
CCC(C)Cn1cc(C(=O)c2cccc3ccccc23)c2ccccc21 (single isomer, unassigned) [JWH-018 N-(2-methylbutyl) isomer (JWH-073 2-methylbutyl homologue)]	92.91	69.13	80.10	–
CCCCCn1cc(C(=O)Cc2ccccc2OC)c2ccccc21 [JWH-250, 2-(2-methoxyphenyl)-1-(1-pentyl-1H-indol-3-yl)ethanone]	11.91	8.74	82.17	IC50 ([1]; standard JWH-250, standard concentration which produces 50% B/B0): 3.850 ng/mL; %B/B0 ([1]; standard curve, JWH-250 1 ng/ml (first row printed 1)): 84%; %B/B0 ([1]; standard curve, JWH-250 1 ng/ml (second row printed 1)): 70%; %B/B0 ([1]; standard curve, JWH-250 3 ng/ml): 59%; %B/B0 ([1]; standard curve, JWH-250 5 ng/ml): 43%; %B/B0 ([1]; standard curve, JWH-250 10 ng/ml): 38%; %B/B0 ([1]; standard curve, JWH-250 20 ng/ml): 29%; %B/B0 ([1]; standard curve, JWH-250 40 ng/ml): 23%
CCCCCCCC(C)(C)c1ccc(C2CCCC(O)C2)c(O)c1 (centres unmarked)	95.39	86.41	100.84	–
CCCCCC(C)n1c(C)c(C(=O)c2cccc3ccccc23)c2ccccc21 (centres unmarked) [JWH-011]	93.19	83.73	88.22	–
CCCCn1cc(C(=O)c2cccc3ccccc23)c2ccc(O)cc21	94.60	68.70	84.50	–
CC(F)CCCn1cc(C(=O)c2cccc3ccccc23)c2ccccc21 (single isomer, unassigned) [AM-2201 N-(4-fluoropentyl) isomer]	68.00	52.90	71.98	–
CCCCCn1cc(C(=O)Cc2cccc(Cl)c2)c2ccccc21 [JWH 203 3-chloro isomer (JWH-237)]	22.69	27.22	72.53	–
CCCCCCC(C)(C)c1ccc([C@@H]2C[C@H](O)CC[C@H]2CCCO)c(O)c1 (racemic) [((+-)-CP 55,940)]	93.49	80.97	98.86	–
CCCCn1c(O)c(C(=O)c2cccc3ccccc23)c2ccccc21	97.53	91.80	89.23	–
CCCCCn1cc(C(=O)c2cccc3ccccc23)c2cccc(O)c21	97.89	80.99	91.71	–
CCCCCn1cc(C(=O)c2cccc3ccccc23)c2cc(O)ccc21	96.24	88.70	95.94	–
CCCCCn1c(O)c(C(=O)c2cccc3ccccc23)c2ccccc21	97.61	98.82	101.92	–
CCCCn1cc(C(=O)c2ccc(OC)cc2)c2ccccc21	62.80	76.87	4.40	–

Compound	%B/B0 [1, 2] [%]	%B/B0 (Antibody to Immunogen V) [%]	%B/B0 (Antibody to Immunogen VI) [%]	further results
CCCCCCCn1cc(C(=O)c2cccc3ccccc23)c2ccccc21 [JWH-020]	93.85	71.43	82.41	–
COc1ccc(C(=O)c2c(C)n(CCN3CCOCC3)c3cc(I)ccc23)cc1 [AM-630 (other name 6-Iodopravadoline), 6-Iodopravadoline]	91.34	71.78	39.25	–
COc1ccc(CC(=O)c2cn(CCC3CCCCC3)c3ccccc23)cc1 [RCS-8 4-methoxy isomer]	76.06	81.97	89.48	–
CCCCCn1cc(C(=O)c2ccc(CC)c3ccccc23)c2cc(O)ccc21 [JWH-210 5-hydroxyindole metabolite]	87.01	79.94	86.92	–
CCCCCc1cc(O)c2c(c1)OC(C)(C)c1ccc(C)cc1-2 [Cannabinol]	97.02	64.54	95.90	–
CCCCCn1cc(C(=O)c2cccc(OC)c2)c2ccccc21 [RCS-4 3-methoxy isomer]	58.00	66.18	41.84	–
CCCCn1cc(C(=O)c2cccc3ccccc23)c2cccc(O)c21	95.81	73.04	81.62	–
CCCCCCC(C)(C)c1ccc([C@H]2CCC[C@@H](O)C2)c(O)c1 (racemic) [CP-49,497-C7 ((+-) CP 47,497)]	96.91	69.53	95.90	–
(+)-CP 55,940	92.49	74.18	94.76	–
COc1ccc(C(=O)c2cn(CCCCCC(=O)O)c3ccccc23)cc1 [RCS-4 N-(5-carboxypentyl) metabolite]	91.87	60.79	4.25	–
COc1ccc(C(=O)c2cn(CCCC(C)O)c3ccccc23)cc1 (centres unmarked) [RCS-4 N-(4-hydroxypentyl) metabolite]	66.40	71.93	5.69	–
OCCc1c[nH]c2ccc(O)cc12 [5-hydroxytryptophol]	85.39	90.61	95.67	–
O=C(c1cccc2ccccc12)c1cn(CCCCCO)c2ccccc12 [JWH-018 N-(5-hydroxypentyl) metabo lite]	89.74	70.25	61.67	–
CCCC(C)n1cc(C(=O)c2cccc3ccccc23)c2ccccc21 (single isomer, unassigned) [JWH-018 N-(1-methylbutyl) isomer]	87.31	76.65	85.57	–
CCCCCn1cc(C(=O)Cc2cccc(C)c2)c2ccccc21 [JWH 251 3-methylphenyl isomer]	21.39	26.65	73.53	–
C=CCCCn1cc(C(=O)c2cccc3ccccc23)c2ccccc21 [JWH-022]	76.82	61.86	75.42	–
(-)-CP 55,940	90.16	91.41	94.76	–
CCCCCn1cc(C(=O)c2cccc3ccc(C)cc23)c2ccccc21 [JWH 122 7-methylnaphthyl isomer]	71.72	78.80	86.92	–
O=C(c1cccc2ccccc12)c1cn(CCN2CCOCC2)c2ccc(O)cc12 [JWH-200 5-hydroxyindole metabolite]	96.49	82.38	93.65	–
